Source: patent publication US9447051B2, “Diaminopyrimidines and uses thereof” (AbbVie inc., priority 2012, dated 2016)
pEC50: −log10 of the molar value.

System: RSV (Group A, Long Strain)
Experiment: Antiviral (RSV) assay: cytopathetic effect (CPE) protection assay in HEp-2 cells, MTT readout
Assay type: cell-based, human respiratory syncytial virus (RSV)
Conditions: Table 1, 0.2 MOI RSV, 4 days incubation, protection from CPE
Procedure: HEp-2 cells and RSV (Group A, Long Strain) were obtained from the American Type Culture Collection (Manassas, Va.). A cytopathetic effect (CPE) protection assay was performed to determine the ability of a compound to protect the cells from viral infection and thus the CPE induced by viral infection. 96-well plates were first seeded with 3×10^3 HEp-2 cells per well in Dulbecco's modified Eagle's medium (DMEM) containing 10% fetal bovine serum (FBS). One day after the cells were seeded, they were preincubated with serial dilutions of compounds prepared in 100 μL assay medium (DMEM mixed with F12 medium at a 1:1 ratio, supplemented with 2% FBS and 1 mM sodium pyruvate) for 1 hour at 37° C. 100 μL of assay medium containing 0.2 multiplicity of infection (MOI) of RSV was then added to each well of cells. In addition to wells containing infected cells incubated with compounds, each plate also contained replicates of two kinds of controls: (1) Virus control contained cells infected with 0.2 MOI of RSV in assay medium, (2) Uninfected cell control contained cells incubated with assay medium only. After 4 days of incubation at 37° C., the viability of cells was assessed using MTT (Thiazolyl blue tetrazolium bromide, Sigma). A stock solution of MTT, at a concentration of 4 mg/mL in phosphate-buffered saline, was added to all wells at 25 μL per well. Plates were further incubated for 4 hours, and each well was then treated with 50 μL of a solution containing 20% sodium dodecyl sulfate (SDS) and 0.02 N HCl. After an overnight incubation, the plates were measured on a BioTek® microtiter plate reader at wavelengths of 570 nm and 650 nm. The MTT detection is based on the fact that viable (uninfected) cells can reduce the tetrazolium salts into colored formazan products, which can then be quantitated by spectrometry. […] Compounds were tested to determine both their antiviral and toxicity to determine their therapeutic window. Determination of the EC50 and TD50 of these active compounds were repeated one additional time to confirm the window.

[1] = human respiratory syncytial virus, HEp-2, 96 h

In the case of Cc1nc(N[C@@H](C)c2ccccc2)nc(NC2CCCCC2)c1C [Example 16, N^4-cyclohexyl-5,6-dimethyl-N^2-[(1S)-1-phenylethyl]pyrimidine-2,4-diamine], the pEC50 [1] was under 5.43.
Work on Cc1nc(NCc2ccc(C(F)(F)F)cc2)nc(NC2CCCCC2)c1C [Example 12, N^4-cyclohexyl-5,6-dimethyl-N^2-[4-(trifluoromethyl)benzyl]pyrimidine-2,4-diamine] yielded a pEC50 [1] of under 6.02.
In the case of Cc1nc(NCc2ccccn2)nc(NC2CCC(F)(F)CC2)c1C [Example 32, N^4-(4,4-difluorocyclohexyl)-5,6-dimethyl-N^2-(pyridin-2-ylmethyl)pyrimidine-2,4-diamine], the pEC50 [1] was 6.66.
Cc1nc(NCc2ccccn2)nc(NC2CCCCC2C)c1C (centres unmarked) [Example 40, 5,6-dimethyl-N^4-(2-methylcyclohexyl)-N^2-(pyridin-2-ylmethyl)pyrimidine-2,4-diamine] showed a pEC50 [1] of 7.19.
Work on Cc1nc(NCc2cc(C(C)(C)C)ccn2)nc(NC2CCCCC2)c1C [Example 21, N^2-[(4-tert-butylpyridin-2-yl)methyl]-N^4-cyclohexyl-5,6-dimethylpyrimidine-2,4-diamine] yielded a pEC50 [1] of under 5.21.
Cc1ccc(CNc2nc(C)c(C)c(NC3CCCCC3)n2)nc1 [Example 86, N^4-cyclohexyl-5,6-dimethyl-N^2-[(5-methylpyridin-2-yl)methyl]pyrimidine-2,4-diamine] showed a pEC50 [1] of 5.82.
With Cc1nc(NCc2ccccn2)nc(NC2CCCC2)c1C [Example 29, N^4-cyclopentyl-5,6-dimethyl-N^2-(pyridin-2-ylmethyl)pyrimidine-2,4-diamine] the pEC50 [1] was 6.04.
For Cc1nc(NCc2cccnc2)nc(NC2CCCCC2)c1C [Example 6, N^4-cyclohexyl-5,6-dimethyl-N^2-(pyridin-3-ylmethyl)pyrimidine-2,4-diamine], the pEC50 [1] was 6.62.
Cc1nc(NCc2ccccn2)nc(Nc2ccon2)c1C [Example 95, 5,6-dimethyl-N^4-(1,2-oxazol-3-yl)-N^2-(pyridin-2-ylmethyl)pyrimidine-2,4-diamine] was tested, and the pEC50 [1] was 5.28.
With Cc1nc(NCc2ccccn2)nc(NC2Cc3ccccc3C2)c1C [Example 46, N^4-(2,3-dihydro-1H-inden-2-yl)-5,6-dimethyl-N^2-(pyridin-2-ylmethyl)pyrimidine-2,4-diamine] the pEC50 [1] was 6.49.
With Cc1nc(NCc2ccccn2)nc(Nc2cccc(F)c2C)c1C [Example 76, N^4-(3-fluoro-2-methylphenyl)-5,6-dimethyl-N^2-(pyridin-2-ylmethyl)pyrimidine-2,4-diamine] the pEC50 [1] was 7.60.
In the case of Cc1nc(NCc2ccccn2)nc(Nc2ccc(F)cc2F)c1C [Example 88, N^4-(2,4-difluorophenyl)-5,6-dimethyl-N^2-(pyridin-2-ylmethyl)pyrimidine-2,4-diamine], the pEC50 [1] was 7.42.
Cc1nc(NCc2c(C)noc2C)nc(NC2CCCCC2)c1C [Example 23, N^4-cyclohexyl-N^2-[(3,5-dimethyl-1,2-oxazol-4-yl)methyl]-5,6-dimethylpyrimidine-2,4-diamine] gave a pEC50 [1] of under 5.00.
Molecule Cc1nc(NCc2ccccn2)nc(NC2CCN(C)CC2)c1C [Example 81, 5,6-dimethyl-N^4-(1-methylpiperidin-4-yl)-N^2-(pyridin-2-ylmethyl)pyrimidine-2,4-diamine] has a pEC50 [1] of 5.89.
Cc1nc(NCc2ccccn2)nc(Nc2ccc(C(F)(F)F)cc2)c1C [Example 57, 5,6-dimethyl-N^2-(pyridin-2-ylmethyl)-N^4-[4-(trifluoromethyl)phenyl]pyrimidine-2,4-diamine] showed a pEC50 [1] of 6.64.
Work on Cc1nc(NCc2ccccn2)nc(Nc2c(C(C)C)cccc2C(C)C)c1C [Example 84, N^4-(2,6-diisopropylphenyl)-5,6-dimethyl-N^2-(pyridin-2-ylmethyl)pyrimidine-2,4-diamine] yielded a pEC50 [1] of 7.80.
For Cc1nc(NCc2ccccn2)nc(NCc2ccc(F)cc2)c1C [Example 97, N^4-(4-fluorobenzyl)-5,6-dimethyl-N^2-(pyridin-2-ylmethyl)pyrimidine-2,4-diamine], the pEC50 [1] was 6.85.
COc1ccnc(CNc2nc(C)c(C)c(NC3CCCCC3)n2)c1 [Example 18, N^4-cyclohexyl-N^2-[(4-methoxypyridin-2-yl)methyl]-5,6-dimethylpyrimidine-2,4-diamine] was tested, and the pEC50 [1] was 6.51.
Cc1nc(NCc2ccccn2)nc(NC2CCc3ccccc32)c1C (centres unmarked) [Example 33, N^4-(2,3-dihydro-1H-inden-1-yl)-5,6-dimethyl-N^2-(pyridin-2-ylmethyl)pyrimidine-2,4-diamine] was tested, and the pEC50 [1] was 6.74.
Molecule Cc1nc(NCc2ccccn2)nc(NC2CCC(F)(F)C2)c1C (centres unmarked) [Example 78, N^4-(3,3-difluorocyclopentyl)-5,6-dimethyl-N^2-(pyridin-2-ylmethyl)pyrimidine-2,4-diamine] has a pEC50 [1] of 6.72.
Cc1nc(NCc2ccccn2)nc(NC2CCC(C)(O)CC2)c1C (stereo not drawn) [Example 37, cis-4-({5,6-dimethyl-2-[(pyridin-2-ylmethyl)amino]pyrimidin-4-yl}amino)-1-methylcyclohexanol] showed a pEC50 of 6.44.
Cc1nc(NCc2ccccn2)nc(NC2CCC(O)C2)c1C (centres unmarked) [Example 34, 3-({5,6-dimethyl-2-[(pyridin-2-ylmethyl)amino]pyrimidin-4-yl}amino)cyclopentanol] gave a pEC50 [1] of 5.37.
For Cc1nc(NCc2ccc(C(C)C)cc2)nc(NC2CCCCC2)c1C [Example 11, N^4-cyclohexyl-N^2-(4-isopropylbenzyl)-5,6-dimethylpyrimidine-2,4-diamine], the pEC50 [1] was under 5.70.
With Cc1nc(NCc2ccccn2)nc(Nc2cccc(OC(F)(F)F)c2)c1C [Example 53, 5,6-dimethyl-N^2-(pyridin-2-ylmethyl)-N^4-[3-(trifluoromethoxy)phenyl]pyrimidine-2,4-diamine] the pEC50 [1] was 7.42.
Cc1nc(NCc2ccc(C(F)(F)F)cn2)nc(NC2CCCCC2)c1C [Example 20, N^4-cyclohexyl-5,6-dimethyl-N^2-{[5-(trifluoromethyl)pyridin-2-yl]methyl}pyrimidine-2,4-diamine] showed a pEC50 [1] of under 5.06.
Work on Cc1cc(F)ccc1Nc1nc(NCc2ccccn2)nc(C)c1C [Example 75, N^4-(4-fluoro-2-methylphenyl)-5,6-dimethyl-N^2-(pyridin-2-ylmethyl)pyrimidine-2,4-diamine] yielded a pEC50 [1] of 7.59.
Molecule Cc1ccc(F)cc1Nc1nc(NCc2ccccn2)nc(C)c1C [Example 71, N^4-(5-fluoro-2-methylphenyl)-5,6-dimethyl-N^2-(pyridin-2-ylmethyl)pyrimidine-2,4-diamine] has a pEC50 [1] of 7.40.
In the case of Cc1nc(NCc2cc(Cl)ccn2)nc(NC2CCCCC2)c1C [Example 27, N^2-[(4-chloropyridin-2-yl)methyl]-N^4-cyclohexyl-5,6-dimethylpyrimidine-2,4-diamine], the pEC50 [1] was 7.38.
Cc1nc(NCc2ccccn2)nc(N(C)C2CCCCC2)c1C [Example 77, N^4-cyclohexyl-N^4,5,6-trimethyl-N^2-(pyridin-2-ylmethyl)pyrimidine-2,4-diamine] was tested, and the pEC50 [1] was 5.92.
For Cc1nc(NCc2ccccn2)nc(N[C@H]2CCCC[C@H]2CO)c1C (racemic) [Example 43, rac-[(1R,2S)-2-({5,6-dimethyl-2-[(pyridin-2-ylmethyl)amino]pyrimidin-4-yl}amino)cyclohexyl]methanol], the pEC50 [1] was 6.72.
Molecule Cc1nc(NCc2ccccn2)nc(NC2CCS(=O)(=O)C2)c1C (centres unmarked) [Example 70, N^4-(1,1-dioxidotetrahydrothiophen-3-yl)-5,6-dimethyl-N^2-(pyridin-2-ylmethyl)pyrimidine-2,4-diamine] has a pEC50 [1] of 6.02.
For Cc1nc(NCc2ccccn2)nc(Nc2cc(F)cc(F)c2)c1C [Example 64, N^4-(3,5-difluorophenyl)-5,6-dimethyl-N^2-(pyridin-2-ylmethyl)pyrimidine-2,4-diamine], the pEC50 [1] was 7.40.
For Cc1nc(NCc2ccccn2)nc(Nc2ccccc2Cl)c1C [Example 66, N^4-(2-chlorophenyl)-5,6-dimethyl-N^2-(pyridin-2-ylmethyl)pyrimidine-2,4-diamine], the pEC50 [1] was 7.47.
Cc1nc(NCc2ccccn2)nc(NC2CCCCC2O)c1C (centres unmarked) [Example 42, 2-({5,6-dimethyl-2-[(pyridin-2-ylmethyl)amino]pyrimidin-4-yl}amino)cyclohexanol] gave a pEC50 [1] of 6.52.
With Cc1nc(NCc2ccccn2)nc(Nc2cccc(C(F)(F)F)c2)c1C [Example 54, 5,6-dimethyl-N^2-(pyridin-2-ylmethyl)-N^4-[3-(trifluoromethyl)phenyl]pyrimidine-2,4-diamine] the pEC50 [1] was 7.60.
Work on Cc1nc(NCc2ccccn2)nc(NC2CCC(C(F)(F)F)CC2)c1C (centres unmarked) [Example 31, 5,6-dimethyl-N^2-(pyridin-2-ylmethyl)-N^4-[4-(trifluoromethyl)cyclohexyl]pyrimidine-2,4-diamine] yielded a pEC50 [1] of under 5.02.
In the case of Cc1ccnc(CNc2nc(C)c(C)c(NC3CCC(F)(F)CC3)n2)c1 [Example 28, N^4-(4,4-difluorocyclohexyl)-5,6-dimethyl-N^2-[(4-methylpyridin-2-yl)methyl]pyrimidine-2,4-diamine], the pEC50 [1] was 7.21.
Molecule Cc1nc(NCc2ccccc2)nc(NC2CCCCC2)c1C [Example 5, N^2-benzyl-N^4-cyclohexyl-5,6-dimethylpyrimidine-2,4-diamine] has a pEC50 [1] of 6.62.
